Laboratory results from the supplement of paper PMC10307832.

How the values were obtained:
Assay in all cases: relative viability (nuclei count vs DMSO), 5 days (fraction); higher = more cells survive
XMD13-2 + Foretinib = compound: C1CC1C(=O)NC2=NNC3=C2C=CC(=C3)C4=CC(=CC=C4)C(=O)NC5CC5 [XMD13-2] + COc1cc2c(Oc3ccc(NC(=O)C4(C(=O)Nc5ccc(F)cc5)CC4)cc3F)ccnc2cc1OCCCN1CCOCC1 [Foretinib] (partner 0.25 µM)
Procedure, shortened: (§1)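 Lung cancer cell lines were seeded in 1536-well plates and dosed by pin tool the next day, with either a single drug or a fixed anchor-drug dose combined with five library-drug doses (not always all listed) spaced in √10 steps. Five days later, one step fixed the cells and stained their nuclei (final 0.05% Triton X-100, 1% formaldehyde, 1 ug/ml Hoechst), and nuclei were counted on 4× images. Relative viability is the nuclei count in treated wells divided by the count in vehicle wells, and each value is the median of duplicate plates.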

ALW-II-49-7 + Lapatinib = compound: Cc1ccc(C(=O)Nc2cccc(C(F)(F)F)c2)cc1Nc1cncc(C(N)=O)c1 [ALW-II-49-7] + CS(=O)(=O)CCNCc1ccc(-c2ccc3ncnc(Nc4ccc(OCc5cccc(F)c5)c(Cl)c4)c3c2)o1 [Lapatinib] (partner 2 µM)
Procedure, shortened: as §1

XMD13-2 + Phenformin = compound: C1CC1C(=O)NC2=NNC3=C2C=CC(=C3)C4=CC(=CC=C4)C(=O)NC5CC5 [XMD13-2] + N=C(N)NC(=N)NCCc1ccccc1 [Phenformin] (partner 250 µM)
Procedure, shortened: as §1

ALW-II-49-7 + Crizotinib = compound: Cc1ccc(C(=O)Nc2cccc(C(F)(F)F)c2)cc1Nc1cncc(C(N)=O)c1 [ALW-II-49-7] + C[C@@H](Oc1cc(-c2cnn(C3CCNCC3)c2)cnc1N)c1c(Cl)ccc(F)c1Cl [Crizotinib] (partner 1 µM)
Procedure, shortened: as §1

Cell Line	relative viability (XMD13-2 + Foretinib; first compound 0.05 µM)	relative viability (XMD13-2 + Foretinib; first compound 0.1581 µM)	relative viability (XMD13-2 + Foretinib; first compound 0.5 µM)	relative viability (XMD13-2 + Foretinib; first compound 1.581 µM)	relative viability (XMD13-2 + Foretinib; first compound 5 µM)	relative viability (ALW-II-49-7 + Lapatinib; first compound 0.08 µM)	relative viability (ALW-II-49-7 + Lapatinib; first compound 0.253 µM)	relative viability (ALW-II-49-7 + Lapatinib; first compound 0.8 µM)	relative viability (ALW-II-49-7 + Lapatinib; first compound 2.53 µM)	relative viability (ALW-II-49-7 + Lapatinib; first compound 8 µM)	relative viability (XMD13-2 + Phenformin; first compound 0.05 µM)	relative viability (XMD13-2 + Phenformin; first compound 0.1581 µM)	relative viability (XMD13-2 + Phenformin; first compound 0.5 µM)	relative viability (XMD13-2 + Phenformin; first compound 1.581 µM)	relative viability (XMD13-2 + Phenformin; first compound 5 µM)	relative viability (ALW-II-49-7 + Crizotinib; first compound 0.08 µM)	relative viability (ALW-II-49-7 + Crizotinib; first compound 0.253 µM)	relative viability (ALW-II-49-7 + Crizotinib; first compound 0.8 µM)	relative viability (ALW-II-49-7 + Crizotinib; first compound 2.53 µM)	relative viability (ALW-II-49-7 + Crizotinib; first compound 8 µM)
A-427	1.23	1.08	1.05	1.02	0.745	0.988	1.13	1.06	1.07	0.969	0.37	0.252	0.334	0.263	0.282	1.01	0.816	0.855	0.878	0.969
ABC-1	0.949	1.1	1.41	1.03	0.846	1.31	1.07	1.1	0.311	0.999	0.219	0.24	0.242	0.267	0.26	0.978	0.92	0.838	1.05	1.03
NCI-H322M	1.06	1.02	0.909	0.971	1.09	0.592	0.583	0.613	0.635	0.556	0.858	0.84	0.774	0.782	0.905	0.928	0.689	0.775	1.04	0.71
COR-L23	1.14	0.986	0.977	0.986	0.942	0.919	0.656	1.16	1.01	1.08	0.479	0.437	0.472	0.409	0.398	0.688	0.601	0.626	0.614	0.793
